Experimental data: ChEMBL document CHEMBL4842340, “Development of Cagrilintide, a Long-Acting Amylin Analogue” (J Med Chem, 2021)
pEC50, pIC50: −log10 of the molar value. ≈ marks a conversion by molar mass, not a printed value. *1 amine or outer side, *2 acyl side, *3 side chain or, on linkers, in order; H or OH if unused. Where a SMILES comes first, the peptide text is derived from it. Bridges are numbered along the chain shown (N, C = ends). [ ]: non-standard residue; d: D form. The star is where a group is joined. C20 diacid = O=C(O)CCCCCCCCCCCCCCCCCCC(=O)*; γGlu = O=C(O)[C@H](CCC(=O)[*:2])N[*:1]; AEEA = NCCOCCOCC(=O)O

Key:
Insulin (Homo sapiens) [1] = molecular target: Insulin (Homo sapiens) (UniProt P01308); test: Effect on insulin (unknown origin) amyloid fibril formation assessed as peptide recovery in glycyl-glycine buffer at pH 4 measured after 45 hrs by thioflavin-T fluorescence assay relative to control; set-up: concentration or dose not given beside the values
Insulin (Homo sapiens) [2] = molecular target: Insulin (Homo sapiens) (UniProt P01308); test: Effect on insulin (unknown origin) amyloid fibril formation assessed as lag time in glycyl-glycine buffer at pH 4 measured after 45 hrs by thioflavin-T fluorescence assay
[3] = Displacement of [125I]-calcitonin from rat calcitonin receptor expressed in tk-ts 13 cells measured after 120 mins by scintillation proximity assay; assay type: cell-based; details: tk-ts13
Rattus norvegicus [4] = test: Reduction in food intake in Sprague-Dawley rat at 3 nmol/kg, sc administered as single dose measured upto 24 hrs relative to control; assay type: functional; set-up: scale not given: the % may be the effect or the level left; details: time hrs <=24
[5] = Displacement of [125I]-amylin from rat AMY3R (CTR+RAMP3) expressed in BHK-13 cells measured after 120 mins by scintillation proximity assay; assay type: cell-based
[6] = Solubility of the compound in lactate at pH 5 by UPLC analysis; assay type: physicochemical; details: lactate buffer
[7] = Agonist activity at human AMY3R (CT+RAMP3) expressed in Hollex1 cells incubated for 3 hrs by luminescence assay; assay type: cell-based; details: Hollex1, 3 h
Rattus norvegicus [8] = test: Reduction in food intake in Sprague-Dawley rat at 3 nmol/kg, sc administered as single dose measured after 24 to 48 hrs relative to control; assay type: functional; set-up: scale not given: the % may be the effect or the level left; details: time 24-48 hrs
[9] = Agonist activity at rat AMY3R (CT+RAMP3) expressed in tk-ts13 cells assessed as increase in intracellular cAMP level incuabted for 25 mins by CRE luciferase reporter gene assay; assay type: cell-based; details: tk-ts13, 25 min
[10] = Solubility of the compound in bis-tris propane at pH 8 by UPLC analysis; assay type: physicochemical; details: bis-tris propane buffer
[11] = Agonist activity at human calcitonin receptor expressed in BHK570 cells assessed as increase in intracellular cAMP concentration incubated for 3 hrs in absence of albumin by CRE luciferase reporter gene assay; assay type: cell-based; details: BHK570, 3 h
Homo sapiens [12] = species on record: Homo sapiens; test: Ratio of EC50 for human calcitonin receptor expressed in BHK570 cells to EC50 for human AMY3R (CT+RAMP3) expressed in Hollex1 cells; assay type: cell-based
[13] = Solubility of the compound in lactate at pH 3 by UPLC analysis; assay type: physicochemical; details: lactate buffer
Rattus norvegicus [14] = species on record: Rattus norvegicus; test: Ratio of IC50 for displacement of [125I]-calcitonin from rat calcitonin receptor expressed in tk-ts 13 cells to IC50 for displacement of [125I]-amylin from rat AMY3R (CTR+RAMP3) expressed in BHK-13 cells; assay type: cell-based
Homo sapiens [15] = species on record: Homo sapiens; test: Ratio of IC50 for displacement of [125I]-calcitonin from human calcitonin receptor expressed in tk-ts 13 cells to IC50 for displacement of [125I]-amylin from human AMY3R (CTR+RAMP3) expressed in BHK-13 cells; assay type: cell-based
[16] = Solubility of the compound in bis-tris propane at pH 7.5 by UPLC analysis; assay type: physicochemical; details: bis-tris propane buffer
[17] = Agonist activity at rat calcitonin receptor expressed in BHK-13 cells assessed as increase in intracellular cAMP concentration incubated for 25 mins by CRE luciferase reporter gene assay; assay type: cell-based; details: BHK-13, 25 min
[18] = Solubility of the compound in bis-tris propane at pH 6 by UPLC analysis; assay type: physicochemical; details: bis-tris propane buffer
[19] = Displacement of [125I]-amylin from human AMY3R (CTR+RAMP3) expressed in BHK-13 cells measured after 120 mins by scintillation proximity assay; assay type: cell-based
[20] = Solubility of the compound in lactate at pH 4 by UPLC analysis; assay type: physicochemical; details: lactate buffer
[21] = Displacement of [125I]-calcitonin from human calcitonin receptor expressed in tk-ts 13 cells measured after 120 mins by scintillation proximity assay; assay type: cell-based; details: tk-ts13
Rattus norvegicus [22] = species on record: Rattus norvegicus; test: Ratio of EC50 for rat calcitonin receptor expressed in BHK-13 cells to EC50 for rat AMY3R (CT+RAMP3) expressed in tk-ts13 cells; assay type: cell-based
[23] = Solubility of the compound in bis-tris propane at pH 6.5 by UPLC analysis; assay type: physicochemical; details: bis-tris propane buffer
[24] = Solubility of the compound in bis-tris propane at pH 7 by UPLC analysis; assay type: physicochemical; details: bis-tris propane buffer

Insulin (Homo sapiens), sequence (P01308 whole entry): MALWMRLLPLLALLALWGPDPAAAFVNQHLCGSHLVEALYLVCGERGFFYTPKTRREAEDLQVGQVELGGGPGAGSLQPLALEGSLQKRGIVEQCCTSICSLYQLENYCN

Activity (Insulin (Homo sapiens) [1]) | TIME (Insulin (Homo sapiens) [2]) | pIC50 [3] | pIC50 [5] | solubility [6] | pEC50 [7] | pEC50 [9] | solubility [10] | pEC50 [11] | solubility [13] | solubility [16] | solubility [18] | pIC50 [19] | solubility [20] | pIC50 [21] | Structure (SMILES) | Activity (Rattus norvegicus [4]) | Activity (Rattus norvegicus [8]) | Ratio EC50 (Homo sapiens [12]) | Ratio IC50 (Rattus norvegicus [14]) | Ratio IC50 (Homo sapiens [15]) | also measured
87% | 45 h | 9.81 | 10.52 | 200 µM (≈ 1020 µg/mL) | 10.11 | 9.88 | 200 µM (≈ 1020 µg/mL) | 9.22 | 200 µM (≈ 1020 µg/mL) | 200 µM (≈ 1020 µg/mL) | 200 µM (≈ 1020 µg/mL) | 10.28 | 200 µM (≈ 1020 µg/mL) | 10.07 | CC[C@H](C)[C@H](NC(=O)[C@@H]1CCCN1C(=O)CNC(=O)[C@H](Cc1ccccc1)NC(=O)[C@H](CC(N)=O)NC(=O)[C@H](CC(N)=O)NC(=O)[C@H](CO)NC(=O)[C@H](CO)NC(=O)[C@H](CCCNC(=N)N)NC(=O)[C@H](Cc1cnc[nH]1)NC(=O)[C@H](CC(C)C)NC(=O)[C@H](Cc1ccccc1)NC(=O)[C@H](CCC(=O)O)NC(=O)[C@H](C)NC(=O)[C@H](CC(C)C)NC(=O)[C@H](CCCNC(=N)N)NC(=O)[C@H](CCC(N)=O)NC(=O)[C@@H](NC(=O)[C@H](C)NC(=O)[C@@H]1CSSC[C@H](NC(=O)[C@H](CCCCN)NC(=O)[C@@H](CCCNC(=N)N)NC(=O)[C@@H](CCCNC(=N)N)NC(=O)COCCOCCNC(=O)COCCOCCNC(=O)CC[C@H](NC(=O)CCCCCCCCCCCCCCCCCCC(=O)O)C(=O)O)C(=O)N[C@@H](CC(N)=O)C(=O)N[C@@H]([C@@H](C)O)C(=O)N[C@@H](C)C(=O)N[C@@H]([C@@H](C)O)C(=O)N1)[C@@H](C)O)C(=O)N[C@@H](CC(C)C)C(=O)N1CCC[C@H]1C(=O)N1CCC[C@H]1C(=O)N[C@H](C(=O)N[C@@H](CC(N)=O)C(=O)N[C@H](C(=O)NCC(=O)N[C@@H](CO)C(=O)N[C@@H](CC(N)=O)C(=O)N[C@H](C(=O)N[C@@H](Cc1ccc(O)cc1)C(N)=O)[C@@H](C)O)C(C)C)[C@@H](C)O ({C20 diacid-γGlu-AEEA-AEEA}-[dR][dR]KCNTATCATQRLAEFLHRSSNNFGPILPPTNVGSNTY-NH2; disulfide 4-9) | 24% | 0% | 8 | 5 | 2 | pEC50 [17]: 8.72; Ratio EC50 (Rattus norvegicus [22]): 14
0% | 9 h | 9.03 | 9.74 | 200 µM (≈ 866 µg/mL) | 9.90 |  | 200 µM (≈ 866 µg/mL) | 9.93 | 200 µM (≈ 866 µg/mL) | 200 µM (≈ 866 µg/mL) | 200 µM (≈ 866 µg/mL) | 8.87 | 200 µM (≈ 866 µg/mL) | 9.33 | CC[C@H](C)[C@H](NC(=O)[C@@H]1CCCN1C(=O)CNC(=O)[C@H](Cc1ccccc1)NC(=O)[C@H](CC(N)=O)NC(=O)[C@H](CC(N)=O)NC(=O)[C@H](CO)NC(=O)[C@H](CO)NC(=O)[C@H](Cc1cnc[nH]1)NC(=O)[C@H](Cc1cnc[nH]1)NC(=O)[C@H](CC(C)C)NC(=O)[C@H](Cc1ccccc1)NC(=O)[C@H](CCC(=O)O)NC(=O)[C@H](C)NC(=O)[C@H](CC(C)C)NC(=O)[C@H](CCCNC(=N)N)NC(=O)[C@H](CCC(N)=O)NC(=O)[C@@H](NC(=O)[C@H](C)NC(=O)[C@@H]1CSSC[C@H](NC(=O)CC[C@H](NC(=O)CCCCCCCCCCCCCCCCCCC(=O)O)C(=O)O)C(=O)N[C@@H](CC(N)=O)C(=O)N[C@@H]([C@@H](C)O)C(=O)N[C@@H](C)C(=O)N[C@@H]([C@@H](C)O)C(=O)N1)[C@@H](C)O)C(=O)N[C@@H](CC(C)C)C(=O)N1CCC[C@H]1C(=O)N1CCC[C@H]1C(=O)N[C@H](C(=O)N[C@@H](CC(N)=O)C(=O)N[C@H](C(=O)NCC(=O)N[C@@H](CO)C(=O)N[C@@H](CC(N)=O)C(=O)N[C@H](C(=O)N[C@@H](Cc1ccc(O)cc1)C(N)=O)[C@@H](C)O)C(C)C)[C@@H](C)O ({C20 diacid-γGlu}-CNTATCATQRLAEFLHHSSNNFGPILPPTNVGSNTY-NH2; disulfide 1-6) | 39% | 36% | 1 | 5 | 0.3 | solubility [23]: 200 µM (≈ 866 µg/mL); solubility [24]: 200 µM (≈ 866 µg/mL)
2% | 5 h | 9.09 | 10.57 | 10 µM (≈ 44.5 µg/mL) | 10.08 |  |  | 9.90 | 200 µM (≈ 889 µg/mL) |  | 1 µM (≈ 4.45 µg/mL) | 9.30 | 200 µM (≈ 889 µg/mL) | 8.49 | CC[C@H](C)[C@H](NC(=O)[C@@H]1CCCN1C(=O)CNC(=O)[C@H](Cc1ccccc1)NC(=O)[C@H](CC(N)=O)NC(=O)[C@H](CC(N)=O)NC(=O)[C@H](CO)NC(=O)[C@H](CO)NC(=O)[C@H](CCCNC(=N)N)NC(=O)[C@@H](NC(=O)[C@H](CC(C)C)NC(=O)[C@H](Cc1ccccc1)NC(=O)[C@H](CCC(=O)O)NC(=O)[C@H](C)NC(=O)[C@H](CC(C)C)NC(=O)[C@H](CCCNC(=N)N)NC(=O)[C@H](CCC(N)=O)NC(=O)[C@@H](NC(=O)[C@H](C)NC(=O)[C@@H]1CSSC[C@H](NC(=O)[C@H](Cc2cnc[nH]2)NC(=O)CC[C@H](NC(=O)CCCCCCCCCCCCCCCCCCC(=O)O)C(=O)O)C(=O)N[C@@H](CC(N)=O)C(=O)N[C@@H]([C@@H](C)O)C(=O)N[C@@H](C)C(=O)N[C@@H]([C@@H](C)O)C(=O)N1)[C@@H](C)O)C(C)C)C(=O)N[C@@H](CC(C)C)C(=O)N1CCC[C@H]1C(=O)N1CCC[C@H]1C(=O)N[C@H](C(=O)N[C@@H](CC(N)=O)C(=O)N[C@H](C(=O)NCC(=O)N[C@@H](CO)C(=O)N[C@@H](CC(N)=O)C(=O)N[C@H](C(=O)N[C@@H](Cc1ccc(O)cc1)C(N)=O)[C@@H](C)O)C(C)C)[C@@H](C)O ({C20 diacid-γGlu}-HCNTATCATQRLAEFLVRSSNNFGPILPPTNVGSNTY-NH2; disulfide 2-7) | 56% | 59% | 2 | 30 | 7 | solubility [23]: 1 µM (≈ 4.45 µg/mL); solubility [24]: 10 µM (≈ 44.5 µg/mL)
9% | 30 h | 9.66 | 10.32 | 200 µM (≈ 920 µg/mL) | 9.99 | 9.83 | 200 µM (≈ 920 µg/mL) | 9.78 | 200 µM (≈ 920 µg/mL) | 200 µM (≈ 920 µg/mL) |  | 9.44 | 200 µM (≈ 920 µg/mL) | 9.95 | CC[C@H](C)[C@H](NC(=O)[C@@H]1CCCN1C(=O)CNC(=O)[C@H](Cc1ccccc1)NC(=O)[C@H](CC(N)=O)NC(=O)[C@H](CC(N)=O)NC(=O)[C@H](CO)NC(=O)[C@H](CO)NC(=O)[C@H](Cc1cnc[nH]1)NC(=O)[C@H](Cc1cnc[nH]1)NC(=O)[C@H](CC(C)C)NC(=O)[C@H](Cc1ccccc1)NC(=O)[C@H](CCC(=O)O)NC(=O)[C@H](C)NC(=O)[C@H](CC(C)C)NC(=O)[C@H](CCCNC(=N)N)NC(=O)[C@H](CCC(N)=O)NC(=O)[C@@H](NC(=O)[C@H](C)NC(=O)[C@@H]1CSSC[C@H](NC(=O)[C@H](Cc2cnc[nH]2)NC(=O)[C@H](Cc2cnc[nH]2)NC(=O)CC[C@H](NC(=O)CCCCCCCCCCCCCCCCCCC(=O)O)C(=O)O)C(=O)N[C@@H](CC(N)=O)C(=O)N[C@@H]([C@@H](C)O)C(=O)N[C@@H](C)C(=O)N[C@@H]([C@@H](C)O)C(=O)N1)[C@@H](C)O)C(=O)N[C@@H](CC(C)C)C(=O)N1CCC[C@H]1C(=O)N1CCC[C@H]1C(=O)N[C@H](C(=O)N[C@@H](CC(N)=O)C(=O)N[C@H](C(=O)NCC(=O)N[C@@H](CO)C(=O)N[C@@H](CC(N)=O)C(=O)N[C@H](C(=O)N[C@@H](Cc1ccc(O)cc1)C(N)=O)[C@@H](C)O)C(C)C)[C@@H](C)O ({C20 diacid-γGlu}-HHCNTATCATQRLAEFLHHSSNNFGPILPPTNVGSNTY-NH2; disulfide 3-8) | 40% | 22% | 2 | 5 | 0.3 | pEC50 [17]: 9.66; Ratio EC50 (Rattus norvegicus [22]): 2
